Target: T1, human recombinant mGluR5 (Homo sapiens, UniProt P41594)
T1 construct: expressed in transfected cells; host or cells: HEK 293
Assay: positive modulation of mGluR5, calcium based FLIPR assay
Conditions: EC50 of the modulation; HEK 293 cell line expressing human recombinant mGluR5; glutamate at approximately 5% basal stimulation; peak height of Ca fluorescence signal
Method: The positive modulation of mGluR5 is measured in a HEK 293 cell line expressing human recombinant mGluR5 and is detected with calcium based FLIPR assay. The cells are cultured with DMEM supplemented with 10% FCS, 2 μg/mL tetracycline, 100 μg/mL hygromycin and 500 μg/mL gneticin. The cell culture media is exchanged for tetracycline-free cell culture media 3-7 days before the assay. One day before the assay the cell culture medium is exchanged to DMEM without glutamine and phenol red and supplemented with 10% FCS, 100 μg/mL hygromycin and 500 μg/mL geneticin. On the assay day, the medium of the subconfluent cultures is removed and the cells are detached by addition of 2.5 ml EDTA(0.02%) per 175 cm2 culture flask for 1 minute. The cells are resuspend in Ringer solution (140 mM NaCl, 5 mM KCl, 2.5 mM CaCl2, 1.5 mM MgCl2, 5 mM Glucose, 10 mM Hepes; adjusted to pH 7.4 with NaOH), pooled and Ringer solution added to adjust the volume to 50 mL. The cell suspension is centrifuged for […] at 1500 U/min (425 g). The supernatant is removed and the cells washed a second time with 50 ml fresh Ringer solution and centrifuged again as before. The supernatant is again removed and the pellet resuspended in Ringer solution to 1,000,000 cells/ml (1×10^6 cells/mL). The cells are plated onto BD BioCoat Poly-D-Lysine 384 well plates (20,000 cells/well; 20 μl/well). The lid covered plates are then incubated until use at 37° C./10% CO2. For dye loading, 20 μl of Calcium-4 assay kit solution (prepared according to the manufacturer's description in Ringer solution) are added to the cells and the plates are incubated for […] 37° C. and then […] at room temperature.
Controls, Compound Dilution and Assay Execution:
Each assay plate contained wells with “high” and “low” controls:
Low controls 1% DMSO/ringer solution + basal glutamate activation (defined as 100% CTL).
High controls 10 μM CDPPB+ basal glutamate activation (defined as 200% CTL).
Test compounds are dissolved and diluted in DMSO to 100-fold the desired concentrations. In a second step, the compounds are diluted in Ringer solution such that the compounds are 4-fold more concentrated than the desired final assay concentration. The final DMSO concentration was 1%.
20 μl of each compound solution are then transferred to the assay plate and the Ca2+ kinetic is measured to determine any intrinsic compound activity. After 5 mM incubation in the FLIPR device, the second stimulation with 20 μl of glutamate in Ringer solution (glutamate concentration adjusted to approximately 5% basal stimulation of the maximal possible glutamate effect) is added and the kinetic Ca2+ response of the wells was measured for the modulation effect.
The peak height of the Ca release related fluorescence signal (9-66) is used for the EC50. The EC50 of the modulation is calculated over a nonlinear regression with GraphPad Prism (Table 1).

T1 sequence (P41594 21-1212): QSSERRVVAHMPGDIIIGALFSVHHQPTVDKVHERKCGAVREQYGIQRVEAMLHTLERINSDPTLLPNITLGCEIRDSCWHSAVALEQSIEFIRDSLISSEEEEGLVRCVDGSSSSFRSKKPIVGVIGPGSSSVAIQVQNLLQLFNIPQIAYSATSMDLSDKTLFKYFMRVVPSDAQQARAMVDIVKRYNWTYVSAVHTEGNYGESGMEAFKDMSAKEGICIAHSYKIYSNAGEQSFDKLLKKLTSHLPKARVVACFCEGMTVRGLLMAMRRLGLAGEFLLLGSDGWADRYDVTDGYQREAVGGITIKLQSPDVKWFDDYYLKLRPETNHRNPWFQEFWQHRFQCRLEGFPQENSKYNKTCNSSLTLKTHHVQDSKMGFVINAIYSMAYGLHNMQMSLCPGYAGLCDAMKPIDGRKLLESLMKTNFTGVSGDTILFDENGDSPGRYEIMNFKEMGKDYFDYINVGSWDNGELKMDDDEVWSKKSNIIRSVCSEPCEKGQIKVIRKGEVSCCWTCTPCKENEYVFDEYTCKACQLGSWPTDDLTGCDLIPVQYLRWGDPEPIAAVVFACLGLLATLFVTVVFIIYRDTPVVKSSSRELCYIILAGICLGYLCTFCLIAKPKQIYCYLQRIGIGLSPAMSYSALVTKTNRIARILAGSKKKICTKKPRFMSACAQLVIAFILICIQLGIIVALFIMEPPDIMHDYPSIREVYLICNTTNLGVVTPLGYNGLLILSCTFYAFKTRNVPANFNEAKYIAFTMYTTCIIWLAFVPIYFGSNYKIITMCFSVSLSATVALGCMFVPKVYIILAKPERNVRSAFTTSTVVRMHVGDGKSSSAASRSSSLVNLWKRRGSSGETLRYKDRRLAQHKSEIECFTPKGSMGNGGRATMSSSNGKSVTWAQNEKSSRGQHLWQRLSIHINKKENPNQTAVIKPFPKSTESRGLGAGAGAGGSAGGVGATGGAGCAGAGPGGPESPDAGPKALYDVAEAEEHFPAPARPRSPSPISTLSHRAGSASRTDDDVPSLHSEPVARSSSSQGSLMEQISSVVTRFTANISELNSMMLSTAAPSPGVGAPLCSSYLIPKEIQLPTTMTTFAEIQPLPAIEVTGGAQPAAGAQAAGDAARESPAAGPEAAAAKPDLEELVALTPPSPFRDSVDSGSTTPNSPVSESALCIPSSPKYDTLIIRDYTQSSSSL

SMILES	EC50 [nM]
Cc1nc2c(s1)CN(C(=O)Cc1nc(-c3ccc(F)cc3)cn1-c1ccc(F)cc1)C2 [Example 7.02.03.]	210
Cc1nc2c(s1)CCN(C(=O)Cc1nc(-c3ccc(F)cc3)cn1-c1ccc(F)cc1)CC2 [Example 7.02.01., 2-[1,4-Bis-(4-fluoro-phenyl)-1H-imidazol-2-yl]-1-(2-methyl-4,5,7,8-tetrahydro-thiazolo[4,5-d]azepin-6-yl)-ethanone]	94
Cc1ccc(-c2cn(-c3ccc(F)cc3)c(CC(=O)N3CCc4nc(N)sc4CC3)n2)cc1 [Example 7.02.05.]	52
Nc1nc2c(s1)CCN(C(=O)Cc1nc(-c3ccc(F)cc3)cn1-c1ccc(F)cc1)CC2 [Example 7.01.02.]	109
Cc1ccc(-c2cn(-c3ccc(F)cc3)c(CC(=O)N3Cc4nc(C)sc4C3)n2)cc1 [Example 7.02.09.]	90
COc1ccc(-c2cn(-c3ccc(F)cc3)c(CC(=O)N3CCc4nc(C)sc4CC3)n2)cc1 [Example 7.02.12.]	39
Cc1ccc(-c2cn(-c3ccc(F)cc3)c(CC(=O)N3CCc4nc(C)sc4CC3)n2)cc1 [Example 7.02.06.]	93
Cc1ccc(-c2cn(-c3ccc(F)cc3)c(CC(=O)N3CCc4nc(C)oc4C3)n2)cc1 [Example 7.02.04.]	375
O=C(Cc1nc(-c2ccc(F)cc2)cn1-c1ccc(F)cc1)N1CCN(c2noc3ccccc23)CC1 [Example 7.02.02.]	114
Cc1ccc(-c2cn(-c3ccc(F)cc3)c(CC(=O)N3CCN(c4cccc(C#N)c4)C(=O)C3)n2)cc1 [Example 7.02.08.]	32
COc1cccc(N2CCN(C(=O)Cc3nc(-c4ccc(C)cc4)cn3-c3ccc(F)cc3)CC2=O)c1 [Example 7.02.07.]	96
COc1ccc(-c2cn(-c3ccc(F)cc3)c(CC(=O)N3CCc4nc(N)sc4CC3)n2)cc1 [Example 7.02.11.]	103
COc1ccc(-c2cn(-c3ccc(F)cc3)c(CC(=O)N3CCN(c4cccc(OC)c4)C(=O)C3)n2)cc1 [Example 7.02.13.]	74
Cc1nc2c(o1)CN(C(=O)Cc1nc(-c3ccc(F)cc3)cn1-c1ccc(F)cc1)CC2 [Example 7.01.01., 2-(1,4-Bis-(4-fluoro-phenyl)-1H-imidazol-2-yl)-1-(2-methyl-6,7-dihydro-4H-oxazolo[5,4-c]pyridin-5-yl)-ethanone]	784

Further lines, results first:

EC50 [nM]	SMILES
70	Cc1cc(-c2cn(-c3ccc(F)cc3)c(CC(=O)N3CCc4nc(N)sc4CC3)n2)ccc1F [Example 7.02.20.]
82	COc1ccc(-c2cn(-c3ccc(F)cc3)c(CC(=O)N3CCN(c4cccc(C#N)c4)C(=O)C3)n2)cc1 [Example 7.02.30.]
138	COc1cccc(-c2cn(-c3ccc(F)cc3)c(CC(=O)N3CCc4nc(C)sc4CC3)n2)c1 [Example 7.02.22.]
67	Cc1nc2c(o1)CN(C(=O)Cc1nc(-c3ccc(F)c(C)c3)cn1-c1ccc(F)cc1)CC2 [Example 7.02.19.]
48	Cc1nc2c(s1)CN(C(=O)Cc1nc(-c3ccc(F)c(C)c3)cn1-c1ccccc1)C2 [Example 7.02.28.]
70	Cc1cc(-c2cn(-c3ccc(F)cc3)c(CC(=O)N3CCc4nc(N)sc4CC3)n2)ccc1Cl [Example 7.02.16.]
87	COc1ccc(-c2cn(-c3ccc(F)cc3)c(CC(=O)N3Cc4nc(C)sc4C3)n2)cc1 [Example 7.02.14.]
33	Cc1nc2c(s1)CCN(C(=O)Cc1nc(-c3ccc(F)c(C)c3)cn1-c1ccccc1)CC2 [Example 7.02.29.]
71	Cc1cc(-c2cn(-c3ccccc3)c(CC(=O)N3CCc4nc(N)sc4CC3)n2)ccc1F [Example 7.02.26.]
45	Cc1nc2c(s1)CCN(C(=O)Cc1nc(-c3ccc(Cl)c(C)c3)cn1-c1ccc(F)cc1)CC2 [Example 7.02.15.]
1440	COc1ccc(-c2cn(-c3ccccc3)c(CC(=O)N3CCc4nc(C)oc4C3)n2)cc1 [Example 7.02.25.]
80	Cc1nc2c(o1)CN(C(=O)Cc1nc(-c3ccc(Cl)c(C)c3)cn1-c1ccc(F)cc1)CC2 [Example 7.02.17.]
1120	COc1cccc(-c2cn(-c3ccc(F)cc3)c(CC(=O)N3CCc4nc(C)oc4C3)n2)c1 [Example 7.02.21.]
394	COc1ccc(-c2cn(-c3ccccc3)c(CC(=O)N3CCc4nc(N)sc4CC3)n2)cc1 [Example 7.02.23.]
67	Cc1nc2c(s1)CCN(C(=O)Cc1nc(-c3ccc(F)c(C)c3)cn1-c1ccc(F)cc1)CC2 [Example 7.02.18.]
94	COc1cccc(N2CCN(C(=O)Cc3nc(-c4ccc(F)c(C)c4)cn3-c3ccccc3)CC2=O)c1 [Example 7.02.27.]
125	COc1ccc(-c2cn(-c3ccccc3)c(CC(=O)N3CCc4nc(C)sc4CC3)n2)cc1 [Example 7.02.24.]

Reference: US8716277B2, “Substituted imidazole compounds useful as positive allosteric modulators of mGlu5 receptor activity” (Boehringer Ingelheim International GmbH, priority 2011, dated 2014)
